In brackets after ≈: the same amount, converted by molar mass. Like-named read-outs stand apart in the source and are kept apart here.
Columns and labels:
Mtb H37Ra^lux = assay: microbe, parasite or virus in culture; assay type: cell-based, Mycobacterium tuberculosis; conditions: for IC50: read-out: Mtb H37Ra^lux IC50
M. avium subsp. avium = assay: microbe, parasite or virus in culture; assay type: cell-based, Mycobacterium avium subsp. avium; conditions: read-out: IC50 M. avium subsp. avium
M. intracellulare = assay: microbe, parasite or virus in culture; assay type: cell-based, Mycobacterium intracellulare; conditions: read-out: IC50 M. intracellulare
M. abscessus = assay: microbe, parasite or virus in culture; assay type: cell-based, Mycobacterium abscessus; conditions: read-out: IC50 M. abscessus
[1] = test system: MRC-5 lung fibroblast cell line
in vitro = conditions: human
M. smegmatis = assay type: cell-based, Mycobacterium smegmatis; conditions: read-out: IC50 M. smegmatis; luminometry, 3 days

Compound | IC50 (Mtb H37Ra^lux; Mycobacterium tuberculosis, H37RA, 168 h) | MIC (Mtb H37Ra^lux; Mycobacterium tuberculosis, H37RA, 168 h, read-out: Mtb H37Ra^lux IC90 (MIC)) | IC50 (M. avium subsp. avium; Mycobacterium avium, 168 h) | IC50 (M. intracellulare; Mycobacterium intracellulare, 168 h) | IC50 (M. abscessus; Mycobacteroides abscessus, 72 h) | T.I. CC50/IC50 [1] | CC50 (in vitro) | Mtb H37Ra^lux IC90 (MIC) (Mtb H37Ra^lux) | IC50 (Mtb H37Ra^lux) | IC50 (M. avium subsp. avium; luminometry, 7 days) | IC50 (M. intracellulare; luminometry, 7 days) | IC50 (M. smegmatis) | IC50 (M. abscessus; luminometry, 3 days)
Cc1nc2sc3ccccc3n2c1C(=O)N1CCN(CCn2cc(-c3ccc(C(C)(C)C)cc3)nn2)CC1 [IT13, (4-(2-(4-(4-(tert-Butyl)-phenyl)-1H-1,2,3-triazol-1-yl)-ethyl)-piperazin-1-yl)(2-methylbenzo-[d]-imidazo-[2,1-b]-thiazol-3-yl)-methanone] | 3.19 µM | 7.24 µM (≈ 3.82 µg/mL) | 17.1 µM | > 128 µM | > 128 µM | 13.7 | 43.7 µM | – | – | – | – | – | –
(4-(2-(4-((1H-Benzo-[d]-imidazole-2-yl)-thio)-1H-1,2,3-triazol-1-yl)-ethyl)-piperazin-1-yl)(2-methylbenzo-[d]-imidazo[2,1-b]-thiazol-3-yl)-methanone [IT16] | – | – | – | – | – | 8.2 | – | 14.49 µM | 7.09 µM | 124 µM | > 128 µM | 103 µM | > 128 µM

Reference: publication PMC9364363 (RSC Advances, 2022)
